From patent US10202404B2, “Polycyclic pyridone derivative having integrase inhibitory activity” (Shionogi & Co., Ltd., priority 2014, dated 2019) come the findings set out here.

SMILES strings stand for the structures.

For this assay, the system named is HIV. Briefly: Anti-HIV activity (MT-4 cells, MTT). The following applies: Human immunodeficiency virus 1, MT4, 96 h; 50% HIV inhibition concentration; MT-4 cells infected with HIV, incubated 4 days, MTT readout. Type of assay: cell-based. As for the experimental part: Previously, a series of two-fold dilution on test samples were carried out in a 96-well plate (50 μL/well). Two plates were made for measuring anti-HIV activity and measuring cytotoxicity. For each agent, measurement in duplicate was carried out. An MT-4 cell suspension of 2.5×10^5/mL was dispensed at 100 μL/well onto the 96-well plate containing the test samples. An HIV virus solution was dispensed at 50 μL/well onto the 96-well plate containing the test samples and the cell. To the plate for measuring cytotoxicity, a culture solution was dispensed at 50 μL/well. It was mixed by a plate mixer, and then incubated in a CO2 incubator for 4 days. […] Thirty microliters of a MTT (3-(4,5-dimethylthiazol-2-yl)-2,5-diphenyltetrazolium bromide) solution was dispensed to each well.
A reaction was allowed to occur in a CO2 incubator for an hour. From each well, 150 μL of the supernatant was removed such that cells are not sucked. One-hundred and fifty microliters of a cell lysis solution was added thereto, and then it was mixed well by a plate mixer until the whole cells are lysed. The mixed 96-well plates were measured by a microplate reader at two wavelengths, 560 nm/690 nm. Based on the following calculation formula, 50% HIV inhibition concentration (EC50) was calculated. EC50=10Z Z=(50%−Low %)/(High %−Low %)×{log(High conc.)−log(Low conc.)}+log(Low conc.) Based on the following calculation formula, 50% cytotoxic concentration (CC50) was calculated. CC50=10Z Z=(50%−Low %)/(High %−Low %)×{log(High conc.)−log(Low conc.)}+log(Low conc.) Based on the following calculation formula, selectivity index (ST) was calculated. SI=CC50/EC50 (Result)
As to `COCCOC(=O)Oc1c2n(cc(-c3nnc(Cc4ccc(F)cc4F)s3)c1=O)C[C@@H]1OCC[C@@H](C)N1C2=O` [Compound D-4], the EC50 was 4.1 nM. That is a single-digit nanomolar value.
The compound `C[C@@H]1CCO[C@H]2Cn3cc(-c4nnc(Cc5cccc(Cl)c5F)s4)c(=O)c(O)c3C(=O)N12` [Compound A-17] had a 50% effective concentration (EC50) of 2.3 nM. Compared with the last compound, the EC50 is about 1.8-fold lower.
Then `C[C@@H]1CCO[C@@H]2Cn3cc(-c4ncc(Cc5ccc(F)cc5F)s4)c(=O)c(O)c3C(=O)N12` [Compound A-13], with 6 nM; and `C[C@@H]1CCO[C@H]2Cn3cc(-c4ncc(Cc5c(F)cc(F)cc5F)s4)c(=O)c(O)c3C(=O)N12` [Compound A-12], with 4.9 nM; and `C[C@@H]1CCO[C@H]2Cn3cc(-c4nnc(Cc5ccc(F)cc5F)s4)c(=O)c(OCOC(=O)C(C)(C)C)c3C(=O)N12` [Compound D-3], with 4.8 nM.
In turn, `O=C1c2c(O)c(=O)c(-c3nnc(Cc4ccc(F)cc4F)s3)cn2C[C@@H]2O[C@H]3COC[C@H]3N12` [Compound A-74] displayed an EC50 of 12 nM.
Then `C[C@@H]1CCO[C@H]2Cn3cc(-c4cn(Cc5ccc(F)cc5F)cn4)c(=O)c(O)c3C(=O)N12` [Compound A-64], with 1.6 nM.

Broadly, the EC50 is the concentration at which the effect is half-maximal.
